Measurements taken from the NIST ThermoML archive (doi:10.1016/j.jct.2012.09.004).
± gives the expanded uncertainty stated by the source.

Columns and labels:
[1] = refractive index (Na D-line) (dimensionless); wn = mass fraction of the nth substance listed; conditions: 101 kPa, Liquid, Standard Abbe refractometry
[2] = wn = mass fraction of the nth substance listed; conditions: Pendant drop shape
[3] = refractive index (Na D-line) (dimensionless); conditions: 101.33 kPa, Liquid, Standard Abbe refractometry
[4] = Pendant drop shape

CCCCCCCCCCCCCC[P+](CCCCCC)(CCCCCC)CCCCCC.[Br-] [tetradecyltrihexylphosphonium bromide] + O
Conditions | refractive index | surface tension liquid-gas [mN/m]
[1], 298.15 K, w2 = 0.065 | 1.4782 ± 0.00037 | –
[1], 303.15 K, w2 = 0.065 | 1.47646 ± 0.00037 | –
[1], 308.15 K, w2 = 0.065 | 1.47465 ± 0.00037 | –
[1], 313.15 K, w2 = 0.065 | 1.47289 ± 0.00037 | –
[1], 318.15 K, w2 = 0.065 | 1.47115 ± 0.00037 | –
[1], 323.15 K, w2 = 0.065 | 1.46939 ± 0.00037 | –
[1], 328.15 K, w2 = 0.065 | 1.46765 ± 0.00037 | –
[1], 333.15 K, w2 = 0.065 | 1.46587 ± 0.00037 | –
[1], 338.15 K, w2 = 0.065 | 1.46414 ± 0.00037 | –
[1], 343.15 K, w2 = 0.065 | 1.46244 ± 0.00037 | –
[1], 348.15 K, w2 = 0.065 | 1.46078 ± 0.00037 | –
[1], 353.15 K, w2 = 0.065 | 1.45926 ± 0.00037 | –
[2], 298.1 K, w2 = 0.0665 | – | 31.4 ± 0.4
[2], 307.9 K, w2 = 0.0665 | – | 30.35 ± 0.35
[2], 318.1 K, w2 = 0.0665 | – | 29.64 ± 0.34
[2], 328.1 K, w2 = 0.0665 | – | 28.95 ± 0.33
[2], 338.9 K, w2 = 0.0665 | – | 28.2 ± 0.33
[2], 344.2 K, w2 = 0.0665 | – | 27.91 ± 0.33

CCCCCCCCCCCCCC[P+](CCCCCC)(CCCCCC)CCCCCC.[Cl-] [trihexyl(tetradecyl)phosphonium chloride]
Conditions | refractive index | surface tension liquid-gas [mN/m]
[3], 283.15 K | 1.48794 ± 0.00037 | –
[3], 288.15 K | 1.48635 ± 0.00037 | –
[3], 293.15 K | 1.48471 ± 0.00037 | –
[3], 298.15 K | 1.48309 ± 0.00037 | –
[3], 303.15 K | 1.48142 ± 0.00037 | –
[3], 308.15 K | 1.47973 ± 0.00037 | –
[3], 313.15 K | 1.47796 ± 0.00037 | –
[3], 318.15 K | 1.4757 ± 0.00037 | –
[3], 323.15 K | 1.47387 ± 0.00037 | –
[3], 328.15 K | 1.4721 ± 0.00037 | –
[3], 333.15 K | 1.47029 ± 0.00037 | –
[3], 338.15 K | 1.46854 ± 0.00037 | –
[3], 343.15 K | 1.46677 ± 0.00037 | –
[3], 348.15 K | 1.46504 ± 0.00037 | –
[3], 353.15 K | 1.4634 ± 0.00037 | –
[4], 298.6 K | – | 30.6 ± 0.4
[4], 308 K | – | 30.1 ± 0.3
[4], 318 K | – | 29.3 ± 0.3
[4], 328.1 K | – | 28.6 ± 0.3
[4], 338.3 K | – | 27.8 ± 0.3
[4], 343.3 K | – | 27.5 ± 0.4

CCCCCCCCCCCCCC[P+](CCCCCC)(CCCCCC)CCCCCC.[Cl-] [trihexyl(tetradecyl)phosphonium chloride] + O
w2 = 0.1334
Conditions | refractive index | surface tension liquid-gas [mN/m]
[1], 298.15 K | 1.46283 ± 0.00037 | –
[1], 303.15 K | 1.46133 ± 0.00037 | –
[1], 308.15 K | 1.45953 ± 0.00037 | –
[1], 313.15 K | 1.45768 ± 0.00037 | –
[1], 318.15 K | 1.45595 ± 0.00037 | –
[1], 323.15 K | 1.45425 ± 0.00037 | –
[1], 328.15 K | 1.45266 ± 0.00037 | –
[1], 333.15 K | 1.45124 ± 0.00037 | –
[1], 338.15 K | 1.44998 ± 0.00037 | –
[1], 343.15 K | 1.44892 ± 0.00037 | –
[1], 348.15 K | 1.44798 ± 0.00037 | –
[1], 353.15 K | 1.4471 ± 0.00037 | –
[2], 298.6 K | – | 30.81 ± 0.35
[2], 308 K | – | 30.01 ± 0.34
[2], 318.3 K | – | 29.2 ± 0.34
[2], 328.7 K | – | 28.45 ± 0.33
[2], 342.7 K | – | 27.43 ± 0.32

CCCCCCCCCC(=O)[O-].CCCCCCCCCCCCCC[P+](CCCCCC)(CCCCCC)CCCCCC [trihexyltetradecylphosphonium decanoate]
Conditions | refractive index | surface tension liquid-gas [mN/m]
[3], 283.15 K | 1.47754 ± 0.00037 | –
[3], 288.15 K | 1.47586 ± 0.00037 | –
[3], 293.15 K | 1.47413 ± 0.00037 | –
[3], 298.15 K | 1.47242 ± 0.00037 | –
[3], 303.15 K | 1.47069 ± 0.00037 | –
[3], 308.15 K | 1.46896 ± 0.00037 | –
[3], 313.15 K | 1.46722 ± 0.00037 | –
[3], 318.15 K | 1.46548 ± 0.00037 | –
[3], 323.15 K | 1.46341 ± 0.00037 | –
[3], 328.15 K | 1.46165 ± 0.00037 | –
[3], 333.15 K | 1.46002 ± 0.00037 | –
[3], 338.15 K | 1.45828 ± 0.00037 | –
[3], 343.15 K | 1.4566 ± 0.00037 | –
[3], 348.15 K | 1.45497 ± 0.00037 | –
[3], 353.15 K | 1.45327 ± 0.00037 | –
[4], 298 K | – | 29 ± 0.4
[4], 307.9 K | – | 28.5 ± 0.4
[4], 318 K | – | 27.8 ± 0.4
[4], 328.5 K | – | 27.2 ± 0.4
[4], 338 K | – | 26.6 ± 0.4
[4], 343 K | – | 26.2 ± 0.4

CCCCCCCCCC(=O)[O-].CCCCCCCCCCCCCC[P+](CCCCCC)(CCCCCC)CCCCCC [trihexyltetradecylphosphonium decanoate] + O
w2 = 0.1526
Conditions | refractive index | surface tension liquid-gas [mN/m]
[1], 298.15 K | 1.45342 ± 0.00037 | –
[1], 303.15 K | 1.45194 ± 0.00037 | –
[1], 308.15 K | 1.45041 ± 0.00037 | –
[1], 313.15 K | 1.44877 ± 0.00037 | –
[1], 318.15 K | 1.44699 ± 0.00037 | –
[1], 323.15 K | 1.44498 ± 0.00037 | –
[1], 328.15 K | 1.4431 ± 0.00037 | –
[1], 333.15 K | 1.44129 ± 0.00037 | –
[1], 338.15 K | 1.43948 ± 0.00037 | –
[1], 343.15 K | 1.43763 ± 0.00037 | –
[1], 348.15 K | 1.43579 ± 0.00037 | –
[1], 353.15 K | 1.43397 ± 0.00037 | –
[2], 298.4 K | – | 29.1 ± 0.4
[2], 307.7 K | – | 28.5 ± 0.4
[2], 318 K | – | 27.7 ± 0.4
[2], 328.9 K | – | 26.8 ± 0.4
[2], 339.2 K | – | 26 ± 0.4
[2], 344.3 K | – | 25.6 ± 0.4

CCCCCCCCCCCCCC[P+](CCCCCC)(CCCCCC)CCCCCC.CS(=O)(=O)[O-] [trihexyltetradecylphosphonium methanesulfonate]
Conditions | refractive index | surface tension liquid-gas [mN/m]
[3], 283.15 K | 1.47813 ± 0.00037 | –
[3], 288.15 K | 1.47668 ± 0.00037 | –
[3], 293.15 K | 1.47507 ± 0.00037 | –
[3], 298.15 K | 1.47346 ± 0.00037 | –
[3], 303.15 K | 1.47186 ± 0.00037 | –
[3], 308.15 K | 1.47025 ± 0.00037 | –
[3], 313.15 K | 1.46865 ± 0.00037 | –
[3], 318.15 K | 1.46702 ± 0.00037 | –
[3], 323.15 K | 1.4654 ± 0.00037 | –
[3], 328.15 K | 1.4638 ± 0.00037 | –
[3], 333.15 K | 1.46217 ± 0.00037 | –
[3], 338.15 K | 1.46053 ± 0.00037 | –
[3], 343.15 K | 1.45895 ± 0.00037 | –
[3], 348.15 K | 1.45727 ± 0.00037 | –
[3], 353.15 K | 1.45572 ± 0.00037 | –
[4], 298.3 K | – | 31 ± 0.4
[4], 308 K | – | 30.3 ± 0.4
[4], 318.5 K | – | 29.6 ± 0.3
[4], 328.8 K | – | 28.8 ± 0.3
[4], 338.7 K | – | 28.2 ± 0.4
[4], 343.5 K | – | 27.9 ± 0.4

CCCCCCCCCCCCCC[P+](CCCCCC)(CCCCCC)CCCCCC.CS(=O)(=O)[O-] [trihexyltetradecylphosphonium methanesulfonate] + O
w2 = 0.1181
Conditions | refractive index | surface tension liquid-gas [mN/m]
[1], 298.15 K | 1.45621 ± 0.00037 | –
[1], 303.15 K | 1.4546 ± 0.00037 | –
[1], 308.15 K | 1.45281 ± 0.00037 | –
[1], 313.15 K | 1.45111 ± 0.00037 | –
[1], 318.15 K | 1.44947 ± 0.00037 | –
[1], 323.15 K | 1.44795 ± 0.00037 | –
[1], 328.15 K | 1.44655 ± 0.00037 | –
[1], 333.15 K | 1.44532 ± 0.00037 | –
[1], 338.15 K | 1.44427 ± 0.00037 | –
[1], 343.15 K | 1.44334 ± 0.00037 | –
[1], 348.15 K | 1.44253 ± 0.00037 | –
[1], 353.15 K | 1.44181 ± 0.00037 | –
[2], 298.6 K | – | 31.15 ± 0.36
[2], 307.8 K | – | 30.45 ± 0.35
[2], 318 K | – | 29.81 ± 0.34
[2], 323.8 K | – | 29.09 ± 0.34
[2], 338.2 K | – | 28.29 ± 0.33
[2], 342.7 K | – | 28.05 ± 0.33
